SMILES strings stand for the structures.

The values that follow come from patent US20170275287A1, “NOVEL N2, N4, N7, 6-TETRASUBSTITUTED PTERIDINE-2,4,7-TRIAMINE AND 2, 4, 6, 7-TETRASUBSTITUTED PTERIDINE COMPOUNDS AND METHODS OF SYNTHESIS AND USE THEREOF” (Janus Biotherapeutics, Inc., priority 2014, published 2017).

The subject of data set [1] is hepatocyte. In words: Hepatocyte viability assay (CEREP). The format is cell-based. How it is done:
See, Tables 4b and Scheme 18. The hepatocyte cell viability assays were performed by CEREP, Seattle, Wash., according to Mosmann, T., 1983, J. Immunol. Met. 65:55-62.

The target in data set [2] is T1, TLR9 (Homo sapiens, UniProt Q9NR96).
T1 construct: PBMCs were isolated from unpurified buffy coat from healthy human donors; host or cells: primary human PBMCs
T1 sequence (Q9NR96 26-1032): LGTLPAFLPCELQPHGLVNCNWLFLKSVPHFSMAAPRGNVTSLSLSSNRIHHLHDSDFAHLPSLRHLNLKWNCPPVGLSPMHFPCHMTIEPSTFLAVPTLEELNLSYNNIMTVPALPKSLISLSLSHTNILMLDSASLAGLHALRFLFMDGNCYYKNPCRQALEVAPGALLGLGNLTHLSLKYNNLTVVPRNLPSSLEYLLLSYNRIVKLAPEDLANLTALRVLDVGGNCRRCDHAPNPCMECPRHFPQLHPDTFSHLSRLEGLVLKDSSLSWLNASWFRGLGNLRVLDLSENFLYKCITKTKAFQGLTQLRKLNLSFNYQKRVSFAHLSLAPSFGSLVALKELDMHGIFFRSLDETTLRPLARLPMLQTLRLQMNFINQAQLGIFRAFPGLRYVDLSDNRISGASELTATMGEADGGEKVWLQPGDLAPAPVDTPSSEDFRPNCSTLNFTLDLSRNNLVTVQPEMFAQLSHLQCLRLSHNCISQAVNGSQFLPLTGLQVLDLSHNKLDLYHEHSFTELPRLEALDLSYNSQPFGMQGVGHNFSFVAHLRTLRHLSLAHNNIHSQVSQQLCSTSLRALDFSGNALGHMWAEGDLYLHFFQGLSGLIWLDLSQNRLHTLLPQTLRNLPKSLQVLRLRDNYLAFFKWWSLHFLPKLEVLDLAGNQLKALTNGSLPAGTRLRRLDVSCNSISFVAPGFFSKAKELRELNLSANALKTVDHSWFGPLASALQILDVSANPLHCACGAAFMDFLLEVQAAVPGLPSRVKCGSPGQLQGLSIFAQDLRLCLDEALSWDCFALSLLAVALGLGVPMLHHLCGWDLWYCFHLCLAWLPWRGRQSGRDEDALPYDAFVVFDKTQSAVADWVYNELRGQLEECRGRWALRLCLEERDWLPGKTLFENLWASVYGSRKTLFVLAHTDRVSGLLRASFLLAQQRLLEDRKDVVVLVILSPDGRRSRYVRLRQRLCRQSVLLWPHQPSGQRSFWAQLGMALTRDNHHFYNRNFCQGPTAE
Put plainly: TLR9 antagonist assay in human PBMCs (ODN2395, IFNα ELISA). The following applies: human PBMC, 0.25 μM ODN2395, IFNα readout. The format is cell-based. How it is done: PBMCs were isolated from unpurified buffy coat from healthy human donors (Blood Research Components, LLC). For antagonist testing, cells were plated on 96-well U-bottom plates at 3×10^6 cells/ml. Antagonist compounds were added to cells in duplicate wells and titrated from 10 μM in 1:3 serial dilutions (8 antagonist concentrations tested in total). After approximately 30 minutes, cells were stimulated with agonist compound (see table 2 for agonist concentrations). After stimulation, cells were incubated overnight at 37° C. To increase the stability of the ssRNA, 3 μg/ml DOTAP (Roche) was added to ORN1075 agonist solutions. All dilutions were made in RPMI-1640 media (Sigma, cat.# R7388)+5% human male AB sera (Sigma, cat.# H4522)+1× Penicillin/Streptomycin solution (VWR, cat.#82026-730).
TLR activity was measured in PBMCs and neutrophils by ELISA using cytokine readouts specific for the TLR of interest.
IFNα was measured as a readout for TLR7 and TLR9 activity in PBMCs stimulated with either ORN1075, or ODN2395, respectively, using a Human Pan-IFNα ELISA kit (MABTech, cat.#3425-1H-20). PBMC supernatant was diluted 1:3 in PBS+0.05% tween-20+0.1% BSA. Absorbance at 450 nm was recorded using a Molecular Devices SpectraMax340PC plate reader. The IC50 for each antagonist was subsequently calculated following the method described below.
Raw ELISA datasets for each 96-well plate, consisting of absorbance readings at […], were first imported in Microsoft Excel to calculate the average absorbance for each standard or antagonist concentration. The averaged data was then imported into SigmaPlot v.11.0 where a standard curve was calculated and used to extrapolate the relative concentration of TLR readout (TNFα, IFNα, etc.) produced. The dose-response curve of each antagonist was then plotted with SigmaPlot v.11.0 on a Log scale. Concentrations of TLR readout were converted to a percentage relative to the average maximum concentration for that ELISA plate in Microsoft Excel. The IC50 for each antagonist was then determined with the SigmaPlot regression wizard using a 4-parameter Hill equation. Each antagonist was tested in a minimum of 3 independent experiments and IC50 results were compiled and averaged using Microsoft Excel.
On the technique in general: In an ELISA, binding on a coated surface is turned into a signal by an enzyme label.

On to `CN1CCN(c2nc(NCCN3CCOCC3)c3ncc(-c4ccccc4)nc3n2)CC1` [JB6059], for which, in data set [1], the “% Hepatocyte viability 24 h at 100 μM” value worked out at 69%. In data set [2], this molecule displayed an IC50 of 305 nM.
The like results for `CN1CCN(c2nc3nc(-c4ccccc4)nc(NCCN4CCOCC4)c3nc2OCCN2CCOCC2)CC1` [JB6116] were, in that order, 69% and 297 nM.
In the case of `CN1CCN(c2nc(NCCN3CCOCC3)c3nc(Cl)c(NCCN4CCOCC4)nc3n2)CC1` [JB6121, 6-chloro-2-(4-methylpiperazin-1-yl)-N^4,N^7-bis(2-morpholinoethyl)pteridine-4,7-diamine], the “% Hepatocyte viability 24 h at 100 μM” value in data set [1] turned out to be 92%. This molecule also returned a half-maximal inhibitory concentration (IC50) in data set [2] of 146 nM.
Regarding `CCOc1nc2c(NCCN3CCCC3)nc(-c3ccccc3)nc2nc1N1CCN(C)CC1` [JB6131], the “% Hepatocyte viability 24 h at 100 μM” value in data set [1] was 11%. The IC50 in data set [2] turned out to be 326 nM.
For `CCCCNc1nc(NCCN2CCOCC2)c2nc(Cl)c(NCCN3CCOCC3)nc2n1` [JB6140], the “% Hepatocyte viability 24 h at 50 μM” value in data set [1] was determined as 59%. Moreover, in data set [2], the IC50 was found to be 101 nM.
`C[C@@H]1CN(CCNc2nc3nc(N4CCN(C)CC4)nc(NCCN4C[C@@H](C)O[C@@H](C)C4)c3nc2Cl)C[C@H](C)O1` [JB6143]: the “% Hepatocyte viability 24 h at 50 μM” value in data set [1] is 74%. Half-maximal inhibition in data set [2] (IC50) required 54 nM.
Take `Clc1nc2c(NCCN3CCOCC3)nc(N3CCOCC3)nc2nc1NCCN1CCOCC1` [JB6147]: it took 8680 nM to reach half-maximal inhibition in data set [2] (IC50).
Take `COCCN1CCN(c2nc(NCCN3CCOCC3)c3nc(Cl)c(NCCN4CCOCC4)nc3n2)CC1` [JB6160]: in data set [1], the “% Hepatocyte viability 24 h at 50 μM” value worked out at 47%. In data set [2], this molecule had an IC50 of 60 nM.
For the molecule `Clc1nc2c(NCCN3CCOCC3)nc(NCc3ccccc3)nc2nc1NCCN1CCOCC1` [JB6172], the “% Hepatocyte viability 24 h at 50 μM” value in data set [1] was 51%. 167 nM corresponded to half-maximal inhibition in data set [2] (IC50).
Regarding `CCOc1nc2c(NCCN3CCOCC3)nc(NCc3ccccc3)nc2nc1NCCN1CCOCC1` [JB6180], the “% Hepatocyte viability 24 h at 50 μM” value in data set [1] was determined as 13%. This molecule yielded an IC50 in data set [2] of 114 nM.
On to `CCCCNc1nc(NCCN2CCOCC2)c2nc(SCC)c(NCCN3CCOCC3)nc2n1` [JB6185], for which, in data set [1], the “% Hepatocyte viability 24 h at 50 μM” value is recorded as 0%. The molecule further showed an IC50 in data set [2] of 61 nM.

In general, IC50 refers to the point on the concentration scale where inhibition reaches its midpoint.
